The values below come from ChEMBL document CHEMBL4190171, “Chemical probes and inhibitors of bromodomains outside the BET family” (Medchemcomm, 2016).

What is called IC50 is the midpoint of a concentration-inhibition curve. The term EC50 denotes the concentration needed to bring the measured effect to its halfway point. As usually defined, the Kd is the concentration at which binding is half-saturated.

Where only a bound is given, the exact number is not on record here.

Assay [1] addresses T1, Histone acetyltransferase KAT2B (Homo sapiens, UniProt Q92831).
In assay [2] the test system is Human immunodeficiency virus 1. Kind of assay: Antiviral activity against HIV1 3B infected in human C8166 cells assessed as reduction in virus-induced cytopathic effect by measuring syncytium formation after 3 days by inverted microscopic analysis. Type of assay: functional, organism-based. The settings on record: Human immunodeficiency virus 1, 3B, C8166, 72 h. On the technique in general: Protection from cytopathic effect is a common read-out in antiviral testing.

Another assay relates to THP-1. The assay is described as follows: Inhibition of LPS-stimulated IL-6 secretion in human THP1 cells by ELISA. In kind it is functional, cell-based. On the technique in general: An ELISA detects its analyte on a solid surface through an enzyme-linked reagent.
For assay [3], the target named is T1, Histone acetyltransferase KAT2B. The source holds these as a separate data set.
Description: Displacement of biotinylated small molecule ligand from His/FLAG-tagged PCAF bromodomain (719 to 832 residues) (unknown origin) after 15 mins by AlphaLisa method
Assay [4] deals with T2, Histone acetyltransferase p300 (Homo sapiens, UniProt Q09472). The assay is described as follows: Binding affinity to EP300 (unknown origin) by isothermal titration calorimetry. Background: In ITC the heat of successive injections is recorded.
Assay [5] deals with T3, CREB-binding protein (Homo sapiens, UniProt Q92793). The assay is described as follows: Binding affinity to C-terminally biotinylated N-terminal His10-tagged human CBP bromodomain (R1081 to G1198 residues) expressed in Escherichia coli BL21(DE3) by isothermal titration calorimetry.
The target in assay [6] is T4, Bromodomain-containing protein 4 (Homo sapiens, UniProt O60885). Kind of assay: Binding affinity to human BRD4 bromodomain1 by isothermal titration calorimetry.
Assay [7] deals with T4, Bromodomain-containing protein 4. Kind of assay: Displacement of Halo-tagged histone H3.3 from Nluc-BRD4 (unknown origin) expressed in HEK293 cells using furimazine as substrate pretreated for 18 hrs followed by substrate addition measured within 5 mins by NanoBRET assay. Type of assay: cell-based.
In assay [8] the target is Cellular tumor antigen p53 (Homo sapiens, UniProt P04637). The assay is described as follows: Inhibition of p53-induced (unknown origin) expressed in human RKO cells assessed as reduction in p53-induced p21 activation measured after 24 hrs by luciferase reporter gene assay. Type of assay: cell-based.
Assay [9] has as its target T3, CREB-binding protein. The assay is described as follows: Binding affinity to recombinant human His-tagged CBP bromodomain expressed in bacterial expression system by isothermal titration calorimetry.
For assay [10], the target named is T2, Histone acetyltransferase p300. Kind of assay: Binding affinity to recombinant human His-tagged EP300 expressed in bacterial expression system by isothermal titration calorimetry.
In assay [11] the target is T4, Bromodomain-containing protein 4. Kind of assay: Binding affinity to recombinant BRD4 bromodomain1 (unknown origin) by isothermal titration calorimetry.
Assay [12] has as its target T5, ATPase family AAA domain-containing protein 2B (Homo sapiens, UniProt Q9ULI0).
T5 sequence (Q9ULI0 whole entry): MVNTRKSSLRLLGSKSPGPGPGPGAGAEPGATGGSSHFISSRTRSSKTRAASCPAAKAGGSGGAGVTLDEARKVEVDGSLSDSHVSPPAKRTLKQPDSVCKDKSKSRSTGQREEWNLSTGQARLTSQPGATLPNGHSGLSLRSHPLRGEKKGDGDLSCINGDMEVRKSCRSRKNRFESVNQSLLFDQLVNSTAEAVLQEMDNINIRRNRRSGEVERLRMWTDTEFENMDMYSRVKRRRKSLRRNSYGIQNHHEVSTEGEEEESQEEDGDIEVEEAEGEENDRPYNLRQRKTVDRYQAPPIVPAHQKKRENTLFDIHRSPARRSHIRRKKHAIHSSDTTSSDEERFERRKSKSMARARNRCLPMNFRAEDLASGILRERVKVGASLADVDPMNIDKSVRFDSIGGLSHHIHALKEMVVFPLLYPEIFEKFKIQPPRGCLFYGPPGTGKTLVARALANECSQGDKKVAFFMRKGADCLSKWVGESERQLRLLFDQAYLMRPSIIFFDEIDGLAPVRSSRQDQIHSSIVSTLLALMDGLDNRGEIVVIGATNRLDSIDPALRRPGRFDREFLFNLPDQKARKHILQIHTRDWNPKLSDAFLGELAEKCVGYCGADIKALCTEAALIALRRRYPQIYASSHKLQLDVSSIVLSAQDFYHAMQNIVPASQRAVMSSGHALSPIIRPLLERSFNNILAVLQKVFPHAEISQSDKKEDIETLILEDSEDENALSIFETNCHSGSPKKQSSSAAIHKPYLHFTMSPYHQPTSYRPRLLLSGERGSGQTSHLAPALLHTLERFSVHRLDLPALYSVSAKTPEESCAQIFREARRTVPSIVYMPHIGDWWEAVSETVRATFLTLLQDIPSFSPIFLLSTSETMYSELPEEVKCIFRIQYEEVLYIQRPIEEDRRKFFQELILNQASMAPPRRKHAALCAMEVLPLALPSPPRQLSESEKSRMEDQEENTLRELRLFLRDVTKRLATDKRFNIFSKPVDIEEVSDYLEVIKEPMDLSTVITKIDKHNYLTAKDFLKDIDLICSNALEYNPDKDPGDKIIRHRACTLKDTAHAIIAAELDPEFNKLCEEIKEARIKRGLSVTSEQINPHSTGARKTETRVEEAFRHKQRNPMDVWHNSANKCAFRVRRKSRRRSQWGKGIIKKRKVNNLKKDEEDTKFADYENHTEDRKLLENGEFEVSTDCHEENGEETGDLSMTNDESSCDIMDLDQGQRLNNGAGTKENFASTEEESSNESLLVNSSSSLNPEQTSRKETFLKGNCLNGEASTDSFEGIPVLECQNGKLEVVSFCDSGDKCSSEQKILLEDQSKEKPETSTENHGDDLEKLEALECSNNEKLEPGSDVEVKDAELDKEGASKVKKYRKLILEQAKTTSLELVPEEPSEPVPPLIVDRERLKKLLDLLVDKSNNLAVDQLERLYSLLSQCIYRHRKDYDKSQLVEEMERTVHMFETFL
The assay is described as follows: Binding affinity to partial length human ATAD2B (Q955 to R1082) expressed in bacterial expression system by Bromoscan method.

Assay [13] addresses T3, CREB-binding protein. The assay is described as follows: Inhibition of CBP bromodomain (unknown origin) using H3K56Ac peptide as substrate by Alphascreen assay.
Assay [14] concerns the target T3, CREB-binding protein. Kind of assay: Binding affinity to CBP bromodomain (unknown origin) by tryptophan fluorescence assay.

T3 sequence (Q92793 whole entry, the tested form may be a part): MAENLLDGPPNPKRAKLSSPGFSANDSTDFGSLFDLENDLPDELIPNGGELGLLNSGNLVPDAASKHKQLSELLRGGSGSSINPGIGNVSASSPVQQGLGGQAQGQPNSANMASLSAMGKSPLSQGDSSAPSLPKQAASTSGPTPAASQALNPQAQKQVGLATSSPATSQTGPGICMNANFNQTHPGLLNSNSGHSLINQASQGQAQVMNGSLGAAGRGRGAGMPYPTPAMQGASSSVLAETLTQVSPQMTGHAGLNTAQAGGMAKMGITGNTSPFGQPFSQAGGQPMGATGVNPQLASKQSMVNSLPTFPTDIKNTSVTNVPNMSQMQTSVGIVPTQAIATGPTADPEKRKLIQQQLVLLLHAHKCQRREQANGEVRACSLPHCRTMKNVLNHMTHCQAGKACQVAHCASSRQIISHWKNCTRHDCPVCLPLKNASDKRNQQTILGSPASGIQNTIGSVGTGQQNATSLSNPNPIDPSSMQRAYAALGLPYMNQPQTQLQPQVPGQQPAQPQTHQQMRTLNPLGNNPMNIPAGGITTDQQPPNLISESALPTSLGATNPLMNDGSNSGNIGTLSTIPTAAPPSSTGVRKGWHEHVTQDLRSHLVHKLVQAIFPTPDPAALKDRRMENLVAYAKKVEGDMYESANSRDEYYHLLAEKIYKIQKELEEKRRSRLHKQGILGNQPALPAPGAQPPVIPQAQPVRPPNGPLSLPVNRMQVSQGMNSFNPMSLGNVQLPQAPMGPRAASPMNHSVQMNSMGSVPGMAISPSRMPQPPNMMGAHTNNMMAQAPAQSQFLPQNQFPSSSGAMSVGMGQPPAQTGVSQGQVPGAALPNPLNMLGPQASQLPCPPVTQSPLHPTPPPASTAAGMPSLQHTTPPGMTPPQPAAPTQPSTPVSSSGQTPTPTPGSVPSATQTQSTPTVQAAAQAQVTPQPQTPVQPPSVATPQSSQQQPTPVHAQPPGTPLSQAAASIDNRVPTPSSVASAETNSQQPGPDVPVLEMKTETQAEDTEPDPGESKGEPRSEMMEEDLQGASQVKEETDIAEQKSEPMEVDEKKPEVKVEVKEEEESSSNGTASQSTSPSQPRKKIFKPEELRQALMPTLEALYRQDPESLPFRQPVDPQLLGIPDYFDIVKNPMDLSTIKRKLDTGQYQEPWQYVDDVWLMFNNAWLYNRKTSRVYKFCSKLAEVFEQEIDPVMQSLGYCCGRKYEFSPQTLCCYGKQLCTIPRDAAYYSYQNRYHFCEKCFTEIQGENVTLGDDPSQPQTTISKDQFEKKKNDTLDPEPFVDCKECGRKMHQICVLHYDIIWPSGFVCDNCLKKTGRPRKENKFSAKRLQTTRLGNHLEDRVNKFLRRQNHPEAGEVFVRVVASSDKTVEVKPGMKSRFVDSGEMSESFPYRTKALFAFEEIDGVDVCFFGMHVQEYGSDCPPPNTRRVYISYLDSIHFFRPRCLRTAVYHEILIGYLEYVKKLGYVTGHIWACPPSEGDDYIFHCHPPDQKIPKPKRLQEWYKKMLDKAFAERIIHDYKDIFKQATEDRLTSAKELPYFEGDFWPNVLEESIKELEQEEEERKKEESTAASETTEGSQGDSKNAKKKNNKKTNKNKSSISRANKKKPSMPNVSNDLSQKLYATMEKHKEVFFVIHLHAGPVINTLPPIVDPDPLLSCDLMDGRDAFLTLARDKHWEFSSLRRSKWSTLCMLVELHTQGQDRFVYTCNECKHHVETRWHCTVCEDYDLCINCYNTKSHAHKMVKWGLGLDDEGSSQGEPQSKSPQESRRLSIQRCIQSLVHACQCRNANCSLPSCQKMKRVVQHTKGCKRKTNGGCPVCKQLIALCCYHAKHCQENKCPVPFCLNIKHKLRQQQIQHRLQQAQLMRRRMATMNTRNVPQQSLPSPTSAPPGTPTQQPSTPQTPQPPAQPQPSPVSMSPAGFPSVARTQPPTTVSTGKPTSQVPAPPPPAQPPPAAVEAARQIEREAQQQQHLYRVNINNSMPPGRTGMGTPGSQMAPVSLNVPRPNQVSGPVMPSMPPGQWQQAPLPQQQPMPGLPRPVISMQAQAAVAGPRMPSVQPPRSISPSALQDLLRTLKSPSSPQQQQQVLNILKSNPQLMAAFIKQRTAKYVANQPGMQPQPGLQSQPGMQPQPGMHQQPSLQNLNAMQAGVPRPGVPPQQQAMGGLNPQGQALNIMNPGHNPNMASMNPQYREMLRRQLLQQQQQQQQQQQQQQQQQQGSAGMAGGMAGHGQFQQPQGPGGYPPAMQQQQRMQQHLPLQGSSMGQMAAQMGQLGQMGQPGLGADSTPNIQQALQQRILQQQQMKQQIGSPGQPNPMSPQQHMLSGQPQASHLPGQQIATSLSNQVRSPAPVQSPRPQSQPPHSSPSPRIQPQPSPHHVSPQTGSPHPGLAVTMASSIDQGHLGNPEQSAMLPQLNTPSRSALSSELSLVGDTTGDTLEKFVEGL
T1 sequence (Q92831 whole entry): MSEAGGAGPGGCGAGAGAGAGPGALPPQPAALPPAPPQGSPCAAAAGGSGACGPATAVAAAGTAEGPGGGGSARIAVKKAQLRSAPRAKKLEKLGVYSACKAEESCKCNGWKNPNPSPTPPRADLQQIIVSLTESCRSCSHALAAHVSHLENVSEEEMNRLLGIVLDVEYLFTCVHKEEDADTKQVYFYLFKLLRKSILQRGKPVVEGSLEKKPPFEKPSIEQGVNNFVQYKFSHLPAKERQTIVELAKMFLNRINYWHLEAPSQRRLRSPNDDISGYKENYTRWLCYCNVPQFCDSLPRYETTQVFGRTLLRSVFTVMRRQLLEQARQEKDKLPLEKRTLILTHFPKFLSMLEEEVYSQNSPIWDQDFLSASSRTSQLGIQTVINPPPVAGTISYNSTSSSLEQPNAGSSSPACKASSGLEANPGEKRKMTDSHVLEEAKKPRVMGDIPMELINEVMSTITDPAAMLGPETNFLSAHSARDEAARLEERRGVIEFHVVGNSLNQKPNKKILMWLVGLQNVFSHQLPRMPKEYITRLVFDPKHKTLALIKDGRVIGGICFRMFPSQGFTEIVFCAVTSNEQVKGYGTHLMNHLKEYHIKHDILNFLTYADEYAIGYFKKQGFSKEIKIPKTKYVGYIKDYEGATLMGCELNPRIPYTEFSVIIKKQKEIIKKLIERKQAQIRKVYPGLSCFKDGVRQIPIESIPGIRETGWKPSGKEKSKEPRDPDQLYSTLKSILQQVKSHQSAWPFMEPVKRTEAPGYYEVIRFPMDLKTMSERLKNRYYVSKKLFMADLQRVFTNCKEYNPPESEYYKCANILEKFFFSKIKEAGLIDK
Sequence of Cellular tumor antigen p53 (P04637 whole entry): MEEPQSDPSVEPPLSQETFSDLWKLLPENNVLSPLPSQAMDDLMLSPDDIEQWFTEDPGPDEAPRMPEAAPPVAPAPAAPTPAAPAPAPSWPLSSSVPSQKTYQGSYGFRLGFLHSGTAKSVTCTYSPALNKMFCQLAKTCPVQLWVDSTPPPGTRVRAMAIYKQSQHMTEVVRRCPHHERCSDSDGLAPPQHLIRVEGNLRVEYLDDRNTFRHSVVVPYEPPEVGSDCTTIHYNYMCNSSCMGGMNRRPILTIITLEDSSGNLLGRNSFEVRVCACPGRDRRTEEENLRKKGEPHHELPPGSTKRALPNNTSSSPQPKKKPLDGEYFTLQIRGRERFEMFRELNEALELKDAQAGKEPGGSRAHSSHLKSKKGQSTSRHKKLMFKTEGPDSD

Regarding `NCCCNCc1ccc(NCCCN)[n+]([O-])c1`, the IC50 in assay [1] was 0.93 µM. Further, in assay [2], the EC50 was found to be 11.5 µM.
In the assay with THP-1, `Cc1cc(=O)n(C)c2cc(N3C(=O)CC[C@H](NS(=O)(=O)CC(C)C)[C@H]3c3ccc(Cl)cc3)ccc12` displayed an IC50 of less than 10 µM.
In turn, `C[C@H](Nc1nn(C)c(=O)n(C)c1=O)[C@H](c1ccc(S(=O)(=O)c2ccccc2)cc1)N(C)C` yielded an IC50 in [3] of 0.07 µM.
Consider `CCC(=O)N1CCOc2c(cc(-c3ccc(OC)c(OC)c3)cc2OC[C@H]2CCCN(C)C2)C1`, for which the equilibrium dissociation constant (Kd) was 0.167 to 0.343 µM in assay [4], 0.151 to 0.208 µM at CREB-binding protein [5] and 5.59 µM in assay [6]. The IC50 in assay [7] came to 0.6 µM.
Turning to `COc1ccc(CCc2nc3cc(-c4c(C)noc4C)ccc3n2C[C@H](C)N2CCOCC2)cc1Cl`, in [8], the IC50 came to 1.54 µM.
With `Cc1noc(C)c1-c1ccc2c(c1)nc(CCc1ccccc1)n2CCN1CCOCC1`, the Kd amounted to 0.32 µM at CREB-binding protein [9] and 0.35 µM in [10].
For the molecule `CCCOc1ccc(CCc2nc3cc(-c4c(C)noc4C)ccc3n2CCN2CCOCC2)cc1`, the Kd in [11] is 20 µM.
With `CO[C@H]1CNC[C@@H](OCC2CCC(F)(F)CC2)[C@@H]1Nc1ncc(-c2cncc(C)c2)c2cc(C)c(=O)[nH]c12`, the dissociation constant (Kd) in [12] worked out at 0.001 µM.
`CC1Nc2ccccc2NC1=O` (stereo not given): the IC50 on CREB-binding protein [13] worked out at 1900 µM.
Turning to `CC(=O)NCCCC[C@@H]1NC(=O)[C@H](Cc2c[nH]c3ccccc23)NC(=O)[C@@H](NC(C)=O)CSSCC(C(=O)N[C@@H](Cc2ccccc2)C(=O)N[C@@H](CCCCN)C(N)=O)NC(=O)[C@H](CC(C)C)NC(=O)[C@H](CCCCN)NC1=O` (single isomer, unassigned), the Kd on CREB-binding protein [14] is 8 µM.
